Measured values reported in patent US20080175974A1, “Isomaltulose as an Aftertaste-Shortening Agent” (Suedzucker Aktiengesellschaft Mannheim/Ochsenfurt, priority 2005, published 2008).

How the values were obtained:
test subjects [1] = assay: Sensory evaluation of milk chocolate containing sucralose (aftertaste); assay type: in vivo, humans; settings: milk chocolate with 42.41 g/100 g isomaltulose and 0.02 g/100 g sucralose; 12 to 17 test subjects; assessed after chocolate completely dissolved in the mouth; compared with trehalose, lactite, maltite, erythrite chocolates; FIG. 1
Experimental: Milk chocolates containing sucralose were produced, which contained either a sugar substitute or isomaltulose (Palatinose™) as the sweetener that is absorbed by the body. These milk chocolates were evaluated sensorially with respect to their aftertaste that is typical of sucralose.
“You have before you samples of chocolate containing sucralose. Sucralose has a pronounced, lingering aftertaste. The following samples are to be evaluated with regard to whether, and if so to what extent, this aftertaste is perceptible.
Please take a serving of chocolate (1 “square”) and suck on it. […] Then please assess the aftertaste of the sample.
To neutralize the taste, please have some of the prepared tea and the white bread.”
Samples: • Milk chocolate containing sucralose with isomaltulose • Milk chocolate containing sucralose with trehalose • Milk chocolate containing sucralose with lactite • Milk chocolate containing sucralose with maltite • Milk chocolate containing sucralose with erythrite
The sensory evaluation of the chocolates containing sucralose was performed by 12 to 17 test subjects.
The aftertaste of the sucralose was assessed after the chocolate had been completely dissolved in the mouth.

test subjects [2] = assay: Sensory evaluation of aqueous solutions containing sucralose (aftertaste); assay type: in vivo, humans; settings: aqueous solution 7.916% isomaltulose, 0.004% sucralose; 5 test subjects; assessed immediately following consumption; compared with maltodextrin or saccharose solutions; scale 0=no perceptible aftertaste, 2=clearly perceptible
Experimental: Aqueous solutions containing sucralose were prepared, which contained isomaltulose, maltodextrin or saccharose as a sweetener. All the solutions also contained sucralose. […] Samples: • Maltodextrin solution: 7.916% maltodextrin; 0.004% sucralose; 92.080% water • Palatinose™ solution: 7.916% isomaltulose; 0.004% sucralose; 92.080% water • Saccharose solution: 5.603% saccharose; 0.004% sucralose; 94.393% water The sensory evaluation of the solutions containing sucralose was performed by 5 test subjects. The aftertaste of the sucralose was assessed immediately following consumption of the solution containing sucralose.

[3] = water; cited from earlier work
[4] = cited from earlier work

Row | SMILES | lingering aftertaste of sucralose (test subjects [1]) | lingering aftertaste of sucralose (test subjects [2]) | aqueous solubility [3] | sweetening power ([4]; 10% aqueous isomaltulose solutions) | sweetness relative to sugar ([4]; sucralose in aqueous solution)
1 | O=C(CO)[C@@H](O)[C@H](O)[C@H](O)CO[C@H]1O[C@H](CO)[C@@H](O)[C@H](O)[C@H]1O [isomaltulose, 6-O-α-D-glucopyranosyl-fructose] | decreases the lingering aftertaste | decreases the lingering aftertaste | 0.49 g anhydrous isomaltulose per gram of water | approximately 0.4 of the sweetening power of sugar | –
2 | OC[C@H]1O[C@H](O[C@]2(CCl)O[C@H](CCl)[C@@H](O)[C@@H]2O)[C@H](O)[C@@H](O)[C@H]1Cl [sucralose, 1,6-dichloro-1,6-didesoxy-β-D-fructofuranosyl-4-chloro-4-desoxy-α-D-galactopyranoside] | – | – | – | – | approximately 600 times sweeter than sugar
